The source of these data is US9980889B2, “Compositions comprising P-hydroxybenzylamine” (DSM IP ASSETS B.V., priority 2012, dated 2018).

Experiment in all cases: MIC by agar dilution method according to DIN 58 940
(In agar dilution, organisms are placed on agar that contains the substance at set levels.)

Experiment [1] relates to P. acnes. It counts as cell-based, Propionibacterium acnes. The following applies: Cutibacterium acnes, ATCC11828; P. acnes ATCC 11828; Mueller-Hinton Agar, 36° C., read after 48 h. On the procedure:
(§1) The antimicrobial activity was assessed by determination of the Minimum Inhibitory Concentration (MIC) using the agar dilution method according to DIN 58 940 at the Labor L+SAG, D−Bad Bocklet-Grossenbrach.
(§2) Culture plates with a diameter of 5.5 cm were prepared with fresh, kept liquid (50° C.) Mueller-Hinton Agar (double concentrated, Merck 1.05437)/aqua purificata comprising p-Hydroxybenzylamine (pHBA) in the concentrations indicated in Table 1 according to standard methods. After solidifying and drying (about 1 h at 36° C.), the culture plates were inoculated with 1 μl of a suspension of the respective microorganism with the colony forming unit as outlined in table 1. The inoculated plates were then incubated at 36° C. The MIC's (i.e. the concentrations where still no growth could be observed) were determined after 18 h for E. coli, P. aeruginosa and S. aureus; after 48 h for P. acnes and after 78 h for A. brasiliensis and C. albicans. Per sample two culture plates were prepared. As control incubated and non-incubated cultures were used.
The suspensions of the microorganism's No. 1-4 were prepared by homogeneous suspension of 3-5 colonies of the same morphology in physiological NaCl-solution. The suspensions were adjusted such, that the haze corresponded to the Mac Farland standard 1.0 (about 3.0*10^8 KBE*/ml). […] The colony count was determined using a spiral plater system (see table 2).

The test system of experiment [2] is P. aeruginosa. It counts as cell-based. The conditions noted are these: Pseudomonas aeruginosa, ATCC9027; P. aeruginosa ATCC 9027; Mueller-Hinton Agar, 36° C., read after 18 h. On the procedure: as §1, §2
(§3) The suspensions of the microorganism's No. 1-4 were prepared by homogeneous suspension of 3-5 colonies of the same morphology in physiological NaCl-solution. The suspensions were adjusted such, that the haze corresponded to the Mac Farland standard 1.0 (about 3.0*10^8 KBE*/ml). For the preparation of the suspensions of the microorganisms 5 and 6, the microorganisms have been taken with a sterile swab and diluted in an amount of physiological NaCl solution such, that the haze corresponded to the Mac Farland standard 1.0. Afterwards the suspensions of the microorganisms 1 and 3-6 have been further diluted with physiological NaCl-solution in a ratio of 1:10. The colony count was determined using a spiral plater system (see table 2).

Experiment [3] deals with A. brasiliensis. The format is cell-based. The conditions noted are these: Aspergillus brasiliensis, ATCC16404; A. brasiliensis ATCC 16404; Mueller-Hinton Agar, 36° C., read after 78 h. On the procedure: as §1, §2, §3
For experiment [4], the system named is E. coli. It counts as cell-based. The conditions noted are these: Escherichia coli, ATCC8739; E. coli ATCC 8739; Mueller-Hinton Agar, 36° C., read after 18 h. On the procedure:
as §1, §2, §3

Experiment [5] concerns S. aureus. It counts as cell-based. The conditions noted are these: Staphylococcus aureus, ATCC6538; S. aureus ATCC 6538; Mueller-Hinton Agar, 36° C., read after 18 h. On the procedure:
as §1, §2, §3

The subject of experiment [6] is C. albicans. It counts as cell-based. The following applies: Candida albicans, ATCC10231; C. albicans ATCC 10231; Mueller-Hinton Agar, 36° C., read after 78 h. The method, then:
as §1, §2, §3

Values after ≈ are worked out from the molar mass of the structure shown.

What is called MIC is the least concentration at which growth counts as inhibited. High values mean a less susceptible organism, low ones a more susceptible organism. Consider `NCc1ccc(O)cc1` [pHBA, p-Hydroxybenzylamine], for which the MIC in experiment [1] came to 7900 µg/mL (≈ 64.1 mM); in experiment [2], 5270 µg/mL (≈ 42.8 mM); in experiment [3] it was 5270 µg/mL (≈ 42.8 mM); in experiment [4], 5270 µg/mL (≈ 42.8 mM); in experiment [5], 5270 µg/mL (≈ 42.8 mM); in experiment [6], 5270 µg/mL (≈ 42.8 mM).
